According to article PMC3177990 (Biochemistry, 2011):

Target: human secretin receptor (Homo sapiens, UniProt P47872)
Assay: cAMP responses in CHO-SecR cells
Format: cell-based
Details: Figure 4, responses not significantly different from 1

Chain of human secretin receptor (P47872 23-440): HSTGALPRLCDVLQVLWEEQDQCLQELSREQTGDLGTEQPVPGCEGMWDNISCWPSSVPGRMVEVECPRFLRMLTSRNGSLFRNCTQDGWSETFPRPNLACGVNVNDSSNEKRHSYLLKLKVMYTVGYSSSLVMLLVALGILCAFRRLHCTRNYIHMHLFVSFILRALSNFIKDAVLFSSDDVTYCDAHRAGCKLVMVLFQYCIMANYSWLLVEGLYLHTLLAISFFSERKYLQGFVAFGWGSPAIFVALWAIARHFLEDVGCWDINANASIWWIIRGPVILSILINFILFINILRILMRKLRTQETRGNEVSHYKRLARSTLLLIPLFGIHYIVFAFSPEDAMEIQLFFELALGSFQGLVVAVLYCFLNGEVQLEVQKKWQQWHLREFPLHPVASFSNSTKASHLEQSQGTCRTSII

agonist character, cAMP responses compared with [Y^10]sec(1-27) (1)	Substance
full agonists	cyclic [Glu^16,Lys^20][Tyr^10]human secretin(1-27) [compound 14]
full agonists	cyclic [Glu^16,Lys^20]human secretin(1-27) [compound 15]
